Publication PMC9498203, “Characterization and Preliminary Application of a Novel Lipoxygenase from Enterovibrio norvegicus” (Foods, 2022)

Molecular target: T1, EnLOX (Enterovibrio norvegicus, UniProt A0A1I5T4S6)
T1 construct: gene SAMN03084138_03074; E. coli BL21(DE3); Ni-NTA purified
T1 sequence (A0A1I5T4S6 1-726): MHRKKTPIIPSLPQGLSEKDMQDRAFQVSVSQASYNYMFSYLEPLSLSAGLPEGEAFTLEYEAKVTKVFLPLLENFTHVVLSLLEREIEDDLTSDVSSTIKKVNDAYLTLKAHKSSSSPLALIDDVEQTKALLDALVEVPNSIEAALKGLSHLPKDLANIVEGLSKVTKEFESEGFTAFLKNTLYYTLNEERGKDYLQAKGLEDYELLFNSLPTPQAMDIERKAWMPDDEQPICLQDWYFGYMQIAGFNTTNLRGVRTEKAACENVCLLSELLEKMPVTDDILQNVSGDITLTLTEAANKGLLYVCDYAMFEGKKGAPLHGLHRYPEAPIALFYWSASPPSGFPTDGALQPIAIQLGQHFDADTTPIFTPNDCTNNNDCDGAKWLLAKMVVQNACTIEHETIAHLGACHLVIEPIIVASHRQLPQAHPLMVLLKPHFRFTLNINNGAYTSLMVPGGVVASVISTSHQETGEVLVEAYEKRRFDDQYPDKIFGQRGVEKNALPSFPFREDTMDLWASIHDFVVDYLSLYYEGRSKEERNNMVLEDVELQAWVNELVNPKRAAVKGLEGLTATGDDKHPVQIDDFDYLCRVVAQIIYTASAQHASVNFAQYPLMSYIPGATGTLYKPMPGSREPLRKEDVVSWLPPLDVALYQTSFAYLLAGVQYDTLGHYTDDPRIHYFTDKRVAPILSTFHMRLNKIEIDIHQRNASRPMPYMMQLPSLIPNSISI
Experiment: absorbance at […] nm, Michaelis-Menten nonlinear fit
Type: biochemical
Conditions: 20 mmol L^−1 Tris-HCl, pH 8.0, 50 °C

Compound	Km
CC/C=C\C/C=C\C/C=C\CCCCCCCC(=O)O [ALA, α-linolenic acid]	2.32 µM
CCCCC/C=C\C/C=C\C/C=C\CCCCC(=O)O [GLA, γ-linolenic acid]	8.79 µM
